Data from patent publication US11440939B2, “Anticancer peptides” (IDP DISCOVERY PHARMA, S.L., priority 2017, dated 2022).
Numbered stars: 1 amine (or outer) side, 2 acyl side, 3 side chain; on linkers, the order of the positions; unused ones are H or OH. Bridge positions count the residues as written; N and C are the ends. Square brackets hold non-standard residues; d marks the D form. Peptide text beside a SMILES is read from it. ξ: configuration not given here. ξαMeNle(6-ylidene) = CC(CCCC=[*:3])(N[*:1])C(=O)[*:2]; X1 = CC(CCCCCCC=[*:3])(N[*:1])C(=O)[*:2]; R8 = C=CCCCCCC[C@@](C)(N)C(=O)O; S5 = C=CCCC[C@](C)(N)C(=O)O

What was measured:
NCI-H526 = conditions: 72 h
Method: NCI-H526, epithelial (small cell lung cancer, SCLC), ATCC-CRL-5811;
During the amplification step and the assays, adherent cells were rinsed with DPBS (Dulbecco's Phosphate Buffered Saline, Sigma D1283) three times and afterward treated for 5 minutes with trypsin ([0.5 g/ml]/EDTA [0.2 g/ml]) (Gibco-BRL, 15400054) in solution of DPBS at 37° C., and, once detached, transferred in the culturing medium. No-adherent cells were centrifuged and transferred in the culturing medium. Cells were counted in a Neubauer chamber after labelling with Tripan-Blue. […]
MTT: 1. […] Absorbance at 570 nm was finally measured. […]

NCI-H524 = assay type: cell-based; conditions: 72 h
Method: NCI-H524, lung (small cell lung cancer, SCLC), ATCC-CRL-5831;
(§1) Cell line MCF-7 was cultured in incubator under CO2 (6%) at 37° C. in DMEM high glucose (Dulbecco's Modified Eagle Solution, Gibco-BRL 31966-21) medium with 10% fetal bovine serum inactivated (FBS) (Gibco-BRL 10106-169). Cell lines HL-60, NCI-H524, NCI-H526, NCI-H69, NCI-H82, NCI-H187 and H5B were cultured in an incubator at 37° C. in RPMI-1640 (Sigma R8758) medium with 10% of fetal bovine serum inactivated (FBS) and 2 mM glutamine (Sigma G7513). Cell line NCI-H510A was cultured in incubator in F12K medium with 10% of fetal bovine serum inactivated (FBS). Cell line GBM-18 and GBM-27 were cultured in incubator under CO2 (6%) at 37° C. in complete medium (Neurobasal+B27+Glutamax+Growth factors).
During the amplification step and the assays, adherent cells were rinsed with DPBS (Dulbecco's Phosphate Buffered Saline, Sigma D1283) three times and afterward treated for 5 minutes with trypsin ([…]) (Gibco-BRL, 15400054) in solution of DPBS at 37° C., and, once detached, transferred in the culturing medium. No-adherent cells were centrifuged and transferred in the culturing medium. Cells were counted in a Neubauer chamber after labelling with Tripan-Blue. […]
(§2) Cells were incubated during 72 h in incubator under CO2 atmosphere at 37° C. Cell viability was measured by means of MTT (3-(4,5-dimethylthiazol-2-yl)-2,5-diphenyltetrazolium bromide) assay, Alamar Blue® (Biosource DAL1100) and Hexosaminidase activity test, consecutively, following manufacturer instructions.
MTT: 1. […] Absorbance at 570 nm was finally measured.
Alamar Blue: 10 μl Alamar Blue solution was added to each well and the plates were incubated for […] in the incubator. Fluorescence ratio at 535/590 (excitation/emission) was measured in Cytofluor (Millipore) fluorimeter. Blank control was determined by lysis of untreated cells with con 2% of Triton X100, right before adding Alamar Blue solution. […]

NCI-H187 = assay type: cell-based; conditions: 72 h
Method: NCI-H187, epithelial (small cell lung cancer, SCLC), ATCC-CRL-5804;
as §1
(§3) During the amplification step and the assays, adherent cells were rinsed with DPBS (Dulbecco's Phosphate Buffered Saline, Sigma D1283) three times and afterward treated for 5 minutes with trypsin ([…]) (Gibco-BRL, 15400054) in solution of DPBS at 37° C., and, once detached, transferred in the culturing medium. No-adherent cells were centrifuged and transferred in the culturing medium. Cells were counted in a Neubauer chamber after labelling with Tripan-Blue.
(§4) MCF-7, NCI-H187, NCI-H69, NCI-H526 and H5B cells were seeded at a density of 5000 cells/well; NCI-H524 and NCI-H82 were seeded at a density of 2500 cells/well; HL-60 and NCI-H510A at 10000 cells/well in 100 μl of medium in 96 well plates. After 24 h, the compounds to be tested were added to calculate the dose/response curve at the starting concentration of 100 μM with serial dilutions (1:1). Controls were the untreated cells. Each experiment was performed in triplicate.
as §2
(§5) MTT: 1. Stock solution of MTT (475989 Calbiochem) was 5 mg/ml in PBS 1×. As negative control (experiment noise) 3 wells were treated with 20 μl/well of a solution of SDS 10% in H2O. The same control was used for Alamar Blue/Hexosaminidase. 10 μl/well of MTT solution were added and the plate was incubated for 3-4 hr. The medium was discarded and 100 μl of extracting buffer (PBS 1×, 15% SDS, 50% […] N,N-Dimethylformamide, pH 4,7) were added to each well. Plates were incubated for 16 h at room temperature under orbital shaking. Absorbance at 570 nm was finally measured.
(§6) Alamar Blue: 10 μl Alamar Blue solution was added to each well and the plates were incubated for […] in the incubator. Fluorescence ratio at 535/590 (excitation/emission) was measured in Cytofluor (Millipore) fluorimeter. Blank control was determined by lysis of untreated cells with con 2% of Triton X100, right before adding Alamar Blue solution.
(§7) Hexosaminidase activity test: after Alamar Blue lecture, medium was discarded and plates were rinsed once with PBS. 60 μl hexosaminidase substrate (p-nitrophenol-N-acetyl-beta-D-glucosamide 7.5 mM [Sigma N-9376], sodium citrate 0.1 M, pH 5.0, 0.25% Triton X-100) was added to each well and the plates were incubated at 37° C. for 2-5 h, according to the cell type (hexosaminidase activity changes according to the cell type). […] Blank control was the same as described before.
(§8) Data analysis was performed calculating the percentage of cell viability normalized vs. the values of negative control, which was considered equal to 100%. The dose/response curve was fitted through the sigmoidal equation dose-response (variable slope) and the EC50 values were calculated as follow: Y=Bottom+(Top−Bottom)/(1+10^{[(Log EC50−X)*HillSlope]},

NCI-H82 = assay type: cell-based; conditions: 72 h
Method: NCI-H82, epithelial (small cell lung cancer, SCLC), ATCC-CRL-5811;
as §1, §3, §4, §2, §5, §6, §7, §8

cancer cell lines = test: Inhibition of cancer cell proliferation, general statements; assay type: cell-based
Method: as §4, §2, §8

NCI-H510A = assay type: cell-based; conditions: 72 h
Method: (§9) NCI-510A, epithelial (small cell lung cancer, SCLC), ATCC-HBT-124; and Hepatocytes (normal liver), from a donor was provided by Foundation DTI-Donation & Transplantation Institute from surgical wastes and from organs not suitable for transplantation
as §1, §3, §4, §2, §5, §6, §7, §8

Human hepatocytes = test: Hepatotoxicity assay, trypan blue exclusion, 24 h; assay type: cell-based; conditions: human hepatocytes, 0.5% SDS
Source text: as §9
Human liver from a donor was subjected to hepatocyte isolation by using a two-step tissue microperfusion technique taking maximum care to avoid anoxia before cannulation, since hepatocytes are cells highly sensitive to oxygen levels. An initial anoxic state could result in a low viability of the cells, and will later affect their metabolic capacity in the culture. Briefly, liver tissue was cannulated by using the accessible vessels with a 1 mm-diameter needle. A balanced salt solution was injected to clean the organ by using a peristaltic pump adjusted to a flow rate of 18-20 ml/min. After washing, a solution containing collagenase was added for liver disintegration. The cell suspension obtained using this process was filtered and centrifuged and, after a couple of washings to remove collagenase, cells were re-suspended in culture medium Ham's F-12/William (1:1) medium supplemented with 2 mM glutamine, […] sodium selenite, 2% newborn calf serum, 50 mU/ml penicillin, 50 μg/ml streptomycin, 0.1% bovine serum albumin, 1.68 mM NAME, 26 mM sodium bicarbonate, 25 μg/ml transferrin, 65.5 μM ethanolamine, 7.2 μM linoleic acid, 17.5 mM glucose, 6.14 mM ascorbic acid and 10 nM insulin.
After resuspension, a cell aliquot was removed and viability was determined by cell counting using the trypan blue exclusion method. Trypan blue uptake is the result of cell membrane alteration and in consequence of cell death. Thus, to quantify cell viability, 0.4% trypan blue in saline was added to the cells and these were immediately loaded in a Neubauer chamber. Viable cells were counted in 5 different fields under the optical microscope as non-blue cells. % Viability=Number of non-blue cells×100/Number of total cells Viability and Hepatoxicity Assay
Human hepatocytes isolated and re-suspended as described before were seeded at 100,000 viable cells/well on 96 collagen-coated plates in order to assess compound's cytotoxicity. After 1 hour in culture, medium was renewed to eliminate cell debris. Cultured human hepatocytes were allowed to stay in culture for 24 hours prior performing the experiments. After 24 h, the compounds to be tested were added to calculate the dose/response curve at the starting concentration of 400 μM with serial dilutions. Each experiment was performed in triplicate. Cells were incubated during 24 h in incubator under CO2 atmosphere at 37° C.
The viability was determined by cell counting using the trypan blue exclusion method. % Viability=Number of non-blue cells×100/Number of total cells Statistics

Row | SMILES | EC50 (NCI-H526) [µM] | EC50 (NCI-H524) [µM] | EC50 (NCI-H187) [µM] | EC50 (NCI-H82) [µM] | inhibition of cancer cell proliferation (in words) (cancer cell lines) | EC50 (NCI-H510A) [µM] | % Viability (Human hepatocytes) [%]
1 | CC(C)C[C@H](NC(=O)[C@H](CCCCN)NC(=O)[C@@H](NC(=O)[C@H](CCCNC(=N)N)NC(=O)[C@H](CC(N)=O)NC(=O)[C@@H](N)CCCNC(=N)N)C(C)C)C(=O)N[C@H](C(=O)N[C@@H](CC(N)=O)C(=O)N[C@@H](CC(C)C)C(=O)N[C@]1(C)CCCCCCC=CCCC[C@@](C)(C(N)=O)NC(=O)[C@H](CCC(=O)O)NC(=O)[C@H](CCCNC(=N)N)NC(=O)[C@H](CC(C)C)NC(=O)[C@H]([C@@H](C)O)NC(=O)[C@H](C)NC(=O)[C@H](Cc2ccccc2)NC1=O)C(C)C [H04] (H-RNRVKLVNL[R8]FATLRE[S5]-NH2; staple 10-17; N-terminus and C-terminus assumed) | ~11 | ~9 |  |  |  |  | 
2 | CC(C)C[C@@H]1NC(=O)[C@H](CC(N)=O)NC(=O)[C@H](C(C)C)NC(=O)C(C)(NC(=O)[C@H](CCCCN)NC(=O)[C@@H](NC(=O)[C@H](CCCNC(=N)N)NC(=O)[C@H](CC(N)=O)NC(=O)[C@@H](N)CCCNC(=N)N)C(C)C)CCCC=CCCCC(C)(C(=O)N[C@@H](Cc2ccccc2)C(=O)N[C@@H](C)C(=O)N[C@H](C(=O)N[C@@H](CC(C)C)C(=O)N[C@@H](CCCNC(=N)N)C(=O)N[C@@H](CCC(=O)O)C(=O)N[C@@H](Cc2c[nH]cn2)C(N)=O)[C@@H](C)O)NC1=O (stereo partly drawn) [H02] (H-RNRVK[ξαMeNle(6-ylidene)]VNL[ξαMeNle(6-ylidene)]FATLREH-NH2; staple 6-10; N-terminus and C-terminus assumed) | ~10 | ~15 |  |  |  |  | 
3 | CC(C)C[C@H](NC(=O)[C@H](CCCCN)NC(=O)[C@@H](NC(=O)[C@@H](N)CCCNC(=N)N)C(C)C)C(=O)N[C@H](C(=O)N[C@@H](CCC(N)=O)C(=O)N[C@@H](CC(C)C)C(=O)NC1(C)CCCCCCC=CCCCC(C)(C(=O)N[C@H](C(=O)N2CCC[C@H]2C(N)=O)C(C)C)NC(=O)[C@H](CCC(=O)O)NC(=O)[C@H](CCCNC(=N)N)NC(=O)[C@H](CC(C)C)NC(=O)[C@H]([C@@H](C)O)NC(=O)[C@H](C)NC(=O)[C@H](Cc2ccccc2)NC1=O)C(C)C (stereo partly drawn) [IDP-H14-Q6] (H-RVKLVQL[X1]FATLRE[ξαMeNle(6-ylidene)]VP-NH2; staple 8-15; N-terminus and C-terminus assumed) |  |  | ~7.5 | ~7.5 | active | ~12.5 | 
4 | CCCCCCCCCCCCOS(=O)(=O)[O-].[Na+] [SDS, reference compound] |  |  |  |  |  |  | 13.6
5 | CC(C)C[C@H](NC(=O)[C@H](CCCCN)NC(=O)[C@@H](NC(=O)[C@@H](N)CCCNC(=N)N)C(C)C)C(=O)N[C@H](C(=O)N[C@@H](CC(N)=O)C(=O)N[C@@H](CC(C)C)C(=O)NC1(C)CCCCCCC=CCCCC(C)(C(=O)N[C@H](C(=O)N[C@@H](CO)C(N)=O)C(C)C)NC(=O)[C@H](CCC(=O)O)NC(=O)[C@H](CCCNC(=N)N)NC(=O)[C@H](CC(C)C)NC(=O)[C@H]([C@@H](C)O)NC(=O)[C@H](C)NC(=O)[C@H](Cc2ccccc2)NC1=O)C(C)C (stereo partly drawn) [IDP-H14-S15] (H-RVKLVNL[X1]FATLRE[ξαMeNle(6-ylidene)]VS-NH2; staple 8-15; N-terminus and C-terminus assumed) |  |  | ~7.5 | ~7.5 | active | ~7.5 | 
6 | CC(C)C[C@H](NC(=O)[C@H](CCCCN)NC(=O)[C@@H](NC(=O)[C@@H](N)CCCNC(=N)N)C(C)C)C(=O)N[C@H](C(=O)N[C@@H](CC(N)=O)C(=O)N[C@@H](CC(C)C)C(=O)NC1(C)CCCCCCC=CCCCC(C)(C(=O)N[C@H](C(=O)N2CCC[C@H]2C(N)=O)C(C)C)NC(=O)[C@H](CCC(N)=O)NC(=O)[C@H](CCCNC(=N)N)NC(=O)[C@H](CC(C)C)NC(=O)[C@H]([C@@H](C)O)NC(=O)[C@H](C)NC(=O)[C@H](Cc2ccccc2)NC1=O)C(C)C (stereo partly drawn) [IDP-H14-Q13] (H-RVKLVNL[X1]FATLRQ[ξαMeNle(6-ylidene)]VP-NH2; staple 8-15; N-terminus and C-terminus assumed) |  |  | ~7.5 | ~7.5 | active | ~12.5 | 
7 | CC(C)C[C@@H]1NC(=O)[C@H](C)NC(=O)[C@H](C)NC(=O)[C@H](Cc2ccccc2)NC(=O)[C@](C)(NC(=O)[C@H](CC(C)C)NC(=O)[C@H](CC(N)=O)NC(=O)[C@@H](NC(=O)[C@H](CC(C)C)NC(=O)[C@H](CCCCN)NC(=O)[C@@H](NC(=O)[C@@H](N)CCCNC(=N)N)C(C)C)C(C)C)CCCCCCC=CCCC[C@@](C)(C(=O)N[C@H](C(=O)N2CCC[C@H]2C(N)=O)C(C)C)NC(=O)[C@H](CCC(=O)O)NC(=O)[C@H](CCCNC(=N)N)NC1=O [IDP-H14-A09] (H-RVKLVNL[R8]FAALRE[S5]VP-NH2; staple 8-15; N-terminus assumed) |  |  | ~7.5 | ~7.5 | active | ~7.5 | 
